{"source": "patent US20160074467A1", "about": "“TREATMENT OF AGING EFFECTS BY GONADOTROPIN-RELEASING HORMONE, NEUROGENESIS OR BRAIN IKK BETA/NF-KAPPAB INHIBITION” (ALBERT EINSTEIN COLLEGE OF MEDICINE, INC., priority 2013, published 2016)", "key": {"[1]": {"tested_on": "neurogenesis in the MBH and dentate gyrus", "assay": "BrdU labelling neurogenesis assay with i.c.v. GnRH in old mice", "format": "in vivo", "settings": "old C57BL/6 mice; GnRH 1 ng per day i.c.v. (third ventricle); single BrdU injection, 7 days; vs vehicle; FIG. 6a-c", "protocol": "(§1) Immunostaining, histology and western blot. Mice under anaesthesia were perfused with 4% paraformaldehyde, and brains were removed, post-fixed in 4% paraformaldehyde, and infiltrated in 20-30% sucrose. Brain sections were made at 10-μm thickness via a cryostat, blocked with serum, penetrated with Triton-X 100, treated overnight at 4° C. with primary antibody, followed by reaction with fluorescence-conjugated secondary antibody (Jackson), and imaged under a confocal microscope. For BrdU staining, sections were pre-treated with 1 M HCl for 30 min at 37° C., followed by 5-min treatment with 0.1 M sodium borate, pH 8.5. Primary antibodies included rabbit anti-Iba-1 (Wako), rabbit anti-GFAP (Millipore), mouse anti-TNF-α (Abcam), mouse anti-NeuN (Millipore), and goat anti-Cre antibody (Santa Cruz). For Nissl staining, freshly isolated mice brains were fixed in 4% paraformaldehyde in PBS for overnight at 4° C. The fixed whole brains were then subjected to cryosectioning coronally, and frozen sections were stained to detect Nissl body by using the NovaUltra Nissl stain kit (IHCWORLD) according to the manufacturer's instruction.\n(§2) Serial brain sections across the MBH were made at 20 μm thickness, and every five sections were represented by one section with staining and cell counting. […]"}, "[2]": {"tested_on": "BrdU-labelled cells in the MBH and dentate gyrus", "assay": "BrdU labelling survival assay with i.c.v. GnRH in old mice", "format": "in vivo", "settings": "old C57BL/6 mice; GnRH 1 ng per day i.c.v.; 7 days of daily BrdU injections, thirty-day tracking; FIG. 6d, e", "protocol": "as §1, §2"}, "[3]": {"tested_on": "aging physiology and histology", "assay": "Daily subcutaneous GnRH therapy: aging physiology and histology (muscle endurance, skeletal muscle fibers, dermal thickness)", "format": "in vivo, C57BL/6 mice", "protocol": "(§3) For animal GnRH therapy, mice were subcutaneously injected with GnRH (Sigma) at the dose of 2 ng per mouse on a daily basis for a period of 5-8 weeks. The Institutional Animal Care and Use Committee at the Albert Einstein College of Medicine approved all the procedures. Body weight and food intake were measured regularly using a laboratory scale. The grip test was performed to measure muscle endurance using the method as similarly described in the literature^36,37, using a homemade square grid with a small mesh size to allow mice to hang for longer time. In brief, a mouse was lifted by the tail and placed on a homemade square grid (1-cm mesh size). The grid was then inverted 30.5 cm over a soft pad, and the mouse was allowed to hang by paws for a maximum of 5 min. The time that the mouse was able to hang was recorded during a 5-min test period.\nTissue histology. Skeletal muscles (quadriceps) and dorsal skin were dissected from mice, fixed in 10% neutralized formalin at 4° C. overnight, and embedded into paraffin. Paraffin sections were prepared at 5-μm thickness and subjected to haematoxylin and eosin staining. Images were collected using an Axioskop II light microscope (Zeiss) and analyzed using Image J."}, "[4]": {"tested_on": "aging-related cognitive decline", "assay": "Daily subcutaneous GnRH therapy: cognition", "format": "in vivo, C57BL/6 mice", "settings": "old MBH-ctrl and MBH-IKK-β mice; peripheral (s.c.) GnRH daily, 5 weeks; FIG. 6i", "protocol": "as §3\nCognitive behavioral tests. […]\nHidden-platform training. […] Mice were expected to find the location of the invisible platform, and measured for latency to reach the platform, distance travelled to reach the platform, path efficiency, time spent in and distance travelled in each quadrant as well as total distance and mean swim speed.\nProbe trial. […] Mice were measured for the amount of time spent in all quadrants, distance and number of times that mice crossed the location of the former platform, and total distance and mean swim speed. […]"}}, "note": "Ends that are not written are not given here."}
{"substance": "gonadotropin-releasing hormone (QHWSYGLRPG; ends and bridges not checked; UniProt P01148 24-33, looked up) [GnRH, gonadotropin-releasing hormone (GnRH), obtained from Sigma]", "values": [{"measurement": "aging-diminished neurogenesis (BrdU-labelled cells in hypothalamus and hippocampus)", "setting": "[1]", "result": "substantially reversed"}, {"measurement": "survival of BrdU-labelled cells in MBH and dentate gyrus", "setting": "[2]", "result": "significantly survived"}, {"measurement": "anti-aging phenotype", "setting": "[3]; MBH-IκB-α mice treated with GnRH, data not shown", "result": "did not further enhance the anti-aging phenotype"}, {"measurement": "pro-aging phenotype (muscle endurance, muscle fibers, dermal thickness)", "setting": "[3]; old MBH-IKK-β mice, GnRH 2 ng per mouse s.c. daily, 5 weeks, FIG. 6f-h", "result": "abrogated the pro-aging phenotype"}, {"measurement": "magnitude of aging histology (muscle endurance, muscle fibers, dermal thickness)", "setting": "[3]; old MBH-ctrl mice, GnRH 2 ng per mouse s.c. daily, 5 weeks, FIG. 6f-h", "result": "reduced the magnitude of aging histology"}, {"measurement": "aging-related cognitive decline", "setting": "[4]", "result": "amelioration of aging-related cognitive decline"}]}
